Results taken from patent US20210371784A1, “CELL-CONTAINING VESSEL AND METHOD FOR PRODUCING NEURAL CELL-CONTAINING SPHEROID” (RICOH COMPANY, LTD., priority 2020, published 2021).

Test system: spheroids of human iPSC-derived neurons and human iPSC-derived astrocytes
Experiment: Calcium transient assay of neural cell-containing spheroids in the presence of a drug
Format: cell-based
Conditions: 4-AP final concentration 30 μM, 10-minute period immediately following the addition, spheroids cultured 7 weeks
Excerpt: Spheroids were produced using human iPSC-derived neurons and human iPSC-derived astrocytes, and the drug responsiveness was investigated. First, human iPSC-derived neurons (mixed neurons, manufactured by Elixirgen Scientific, Inc.) and human iPSC-derived astrocytes (Human iPS-derived Astrocytes (mature), manufactured by Xcell Science Inc.) were mixed so as to achieve cell numbers per well that satisfied the cell numbers indicated below in Table 3 for test numbers 3-1 and 3-2. Subsequently, each cell mixture was inoculated onto a spheroid production plate and cultured to produce a spheroid. […]
Subsequently, following culturing for 7 weeks, each of the spheroids was subjected to a calcium transient assay in the presence of a drug. […] In the calcium transient assays, excessive excitation of the neurons was detected as an increase in oscillation frequency or an elevated baseline.
Specifically, first, each spheroid was transferred to a measurement plate, a calcium-sensitive fluorescent dye (EarlyTox Cardiotoxicity Kit, manufactured by Molecular Devices, LLC) was added to the medium, and the mixture was incubated. Subsequently, 4-AP was added to the medium in an amount sufficient to achieve a final concentration of 30 μM, and fluorescence measurements were conducted at 0.6-second intervals for the 10-minute period immediately following the addition. […]

**Q.** Which “change in the waveform of the oscillations (drug responsiveness)” value (test number 3-1, cell number ratio (neurons:astrocytes) 1:1) does the source give for Nc1ccncc1 [4-AP, 4-aminopyridine] here?
**A.** Its value is “the expected type of change in the waveform of the oscillations was confirmed”.

**Q.** What about the “change in the waveform of the oscillations (drug responsiveness)” value (test number 3-2, cell number ratio (neurons:astrocytes) 4:1) of the same compound?
**A.** The value was “the expected type of change in the waveform of the oscillations could not be confirmed”.
